Reference: patent publication US4146622A, “Aziridinyl quinone anti-transplanted tumor agents” (priority 1977, dated 1979)
Converted amounts (≈) assume the structure as drawn. “And” between values parts separate entries of the source, which are not always exact repeats. Equal values may be shown once. “Also recorded” adds a separate entry of the source. Read-outs that look alike come from different tables or passages of the source.

Legend:
[1] = tested on: P388 lymphocytic leukemia; assay: Intracerebral (IC) lymphocytic leukemia P388 test; type: in vivo, murine; conditions: for ILS (increase in life span): Table III
Text: (§1) ^b Ic tumor implantation, ip QD1-9 treatment schedule.
Central nervous system antitumor activity is given in Table III for the intracerebrally implanted L1210, P388, and ependymoblastoma tumor systems.
All three CNS tumor models (Table III) use intracerebral (IC) tumor implantation and IP treatment.

ependymoblastoma = assay: Intracerebral (IC) ependymoblastoma (EM) brain tumor test; type: in vivo, murine; conditions: for ILS (increase in life span) / T - C (average weight change of test group minus control) / Cures (animals alive per six on day of termination): Table III; for ILS (increase in life span) / T - C (average weight change of test group minus control): ic ependymoblastoma; for T - C (average weight change of test group minus control): day 5
[2] = tested on: transplanted mouse tumor test systems; assay: Transplanted mouse tumor test systems (overall statement); type: in vivo, murine
Text: The criterion for minimum activity is defined here as follows: intraperitoneal and intracerebral L1210 leukemia, 25%; intraperitoneal and intracerebral P388 leukemia, 25%; B16 melanoma, 40%; Lewis lung carcinoma, 25%; and intracerebral ependymoblastoma, 40%.
(§2) The L1210, P388 and B16 test systems described in Table II utilize intraperitoneal (IP) tumor implantation and IP drug treatment while the Lewis lung system employs subcutaneous tumor implantation and IP treatment. All three CNS tumor models (Table III) use intracerebral (IC) tumor implantation and IP treatment.
(§3) The criterion for minimum activity, %ILS, is defined here as follows: Intraperitoneal and intracerebral leukemia L1210 and intraperitoneal leukemia P388, 25%; intraperitoneal B16 melanoma and intracerebral ependymoblastoma, 40%. Consistent with NCI antitumor test protocols, intraperitoneal (IP) administration of the drug was employed with all five tumor systems investigated. Tumor implantation was IP in the systems designated IP leukemia L1210 and P388 as well as B16 melanoma. Intracerebral (IC) tumor implantation was utilized in the IC L1210 and ependymoblastoma tumor systems.

[3] = tested on: P388 lymphocytic leukemia; assay: Intraperitoneal (IP) lymphocytic leukemia P388 transplanted mouse tumor test; type: in vivo, murine
Text: ^b Ip tumor implantation, ip QD1-9 treatment schedule.
(§4) The L1210, P388 and B16 test systems described in Table II utilize intraperitoneal (IP) tumor implantation and IP drug treatment while the Lewis lung system employs subcutaneous tumor implantation and IP treatment.
Aqueous saline solution (0.9%) was used as the drug vehicle. Normally, five doses were employed per experiment with the top dose chosen to produce toxicity. The lower doses were 50% of each preceeding dose.
Consistent with NCI antitumor test protocols, intraperitoneal (IP) administration of the drug was employed with all five tumor systems investigated. Tumor implantation was IP in the systems designated IP leukemia L1210 and P388 as well as B16 melanoma.

[4] = Room temperature water solubility; type: physicochemical
Procedure, shortened: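 Water added incrementally by pipet, with shaking, to a weighed amount of compound at room temperature until dissolved; values are approximate.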

B16 melanocarcinoma = assay: Intraperitoneal B16 melanocarcinoma transplanted mouse tumor test; type: in vivo, murine; conditions: for ILS (increase in life span): Table II
lymphoid leukemia L1210 [5] = assay: Intraperitoneal (IP) lymphoid leukemia L1210 transplanted mouse tumor test; type: in vivo, murine; conditions: for ILS (increase in life span) / T - C (average weight change of test group minus control): Table II; for T - C (average weight change of test group minus control): day 5
Text: ^(a) Day 1-9 treatment schedule (9 injections)
^(b) Day 1,5,9 treatment schedule (3 injections)
^(c) Day 1 only treatment schedule (1 injection)
^(f) Percentage increase in life span of treated animals [(treated
survival .div. control survival) × 100%] - 100%

[6] = tested on: IP ascites tumor systems (leukemia L1210 and P388); assay: IP ascites tumor systems (leukemia L1210 and P388); type: in vivo, murine
Text: as §3

Lewis lung carcinoma = assay: Lewis lung carcinoma, subcutaneous tumor implantation; type: in vivo, murine
Text: ^c Subcutaneous tumor implantation, ip QD5-15 treatment schedule.
as §4

lymphoid leukemia L1210 [7] = assay: Intracerebral (IC) lymphoid leukemia L1210 test; type: in vivo, murine; conditions: for ILS (increase in life span): Table III
Text: as §1, §2
Consistent with NCI antitumor test protocols, intraperitoneal (IP) administration of the drug was employed with all five tumor systems investigated. Tumor implantation was IP in the systems designated IP leukemia L1210 and P388 as well as B16 melanoma. Intracerebral (IC) tumor implantation was utilized in the IC L1210 and ependymoblastoma tumor systems.

[8] = Octanol/H2O partition coefficient (log P); type: physicochemical; conditions: partition coefficient measured
Text: ^(b) Octanol/H2 O values determined by C. Hansch and M. Yamakawa

[9] = ip QD1-5, 1.00 mg/kg/injection, expt 133 (day 99)
[10] = ip QD1-5, 1.00 mg/kg/injection, expts 136 and 144 (day 60)
[11] = ip QD1-5, 2.00 mg/kg/injection, expt 133 (day 99)
[12] = ip QD1-5, 2.00 mg/kg/injection, expts 136 and 144 (day 60)
[13] = ip QD1-5, 4.00 mg/kg/injection, expt 136 (day 60)
[14] = IP L1210, ip QD1-9, 0.88 mg/kg/injection
[15] = IP L1210, ip QD1-9, 1.30 mg/kg/injection
[16] = IP L1210, ip QD1-9, 6.25 mg/kg/injection

Compound: CCOC(=O)NC1=C(N2CC2)C(=O)C(NC(=O)OCC)=C(N2CC2)C1=O [Compound 9, 2,5-Diaziridinyl-3,6-bis (carboethoxyamino)-1,4-benzoquinone]
- antitumor activity ([1]; IC P388): substantial
- ILS (increase in life span) ([1]; ic P388, ip QD1-9, 0.39 mg/kg/injection): 7% and 2%
- ILS (increase in life span) ([1]; ic P388, ip QD1-9, 0.78 mg/kg/injection): 27% and 25%
- ILS (increase in life span) ([1]; ic P388, ip QD1-9, 1.56 mg/kg/injection): 37% and 51%
- ILS (increase in life span) ([1]; ic P388, ip QD1-9, 3.12 mg/kg/injection): 39% and 31%
- OD (optimum dose) ([1]; Table IV, (IC) P388, QD1-9): 1.5 mg/kg/injection and 3 mg/kg/injection
- % ILS ([1]; Table IV, (IC) P388, QD1-9, at OD): 51% and 39%
- antitumor activity (ependymoblastoma; IC ependymoblastoma (EM)): curative; also recorded: very active
- ILS (increase in life span) (ependymoblastoma; ip QD1-5, 0.25 mg/kg/injection): 30%
- T - C (average weight change of test group minus control) (ependymoblastoma; ip QD1-5, 0.25 mg/kg/injection): -1.5 grams
- ILS (increase in life span) (ependymoblastoma; ip QD1-5, 0.50 mg/kg/injection): 62%
- T - C (average weight change of test group minus control) (ependymoblastoma; ip QD1-5, 0.50 mg/kg/injection): -1.8 grams
- ILS (increase in life span) (ependymoblastoma; [9]): 348%
- ILS (increase in life span) (ependymoblastoma; [10]): 126% and 171%
- ILS (increase in life span) (ependymoblastoma; [11]): 349%
- ILS (increase in life span) (ependymoblastoma; [12]): 277% and 171%
- ILS (increase in life span) (ependymoblastoma; [13]): 276%
- T - C (average weight change of test group minus control) (ependymoblastoma; ip QD1-5, 8.00 mg/kg/injection): -5.0 grams
- Cures (animals alive per six on day of termination) (ependymoblastoma; [9]): 3/6
- Cures (animals alive per six on day of termination) (ependymoblastoma; [10]): 1/6 and 5/6
- Cures (animals alive per six on day of termination) (ependymoblastoma; [11]): 4/6
- Cures (animals alive per six on day of termination) (ependymoblastoma; [12]): 5/6
- Cures (animals alive per six on day of termination) (ependymoblastoma; [13]): 4/6
- OD (optimum dose) (ependymoblastoma; Table IV, (IC) ependymoblastoma, QD1-5): 2 mg/kg/injection and 1 mg/kg/injection
- % ILS (ependymoblastoma; Table IV, (IC) ependymoblastoma, QD1-5, at OD): > 277% and > 202% and > 172% and > 171%
- survivors of 6 test mice on experiment termination day (ependymoblastoma; Table IV, (IC) ependymoblastoma, QD1-5, at OD, day 60): 5 and 4 and 6
- survivors (number in parentheses) EM (ependymoblastoma; Table XI, per 6 test animals, day 60): 5
- TR (therapeutic ratio) (ependymoblastoma; ependymoblastoma): 4-8
- optimum dose (ependymoblastoma; ependymoblastoma): 1 to 2 mg/kg
- survival (ependymoblastoma; experiment 133, 2.0 mg/kg, day 99): A majority of the test animals were alive on day 99
- toxicity [2]: reasonably toxic material
- antitumor activity ([2]; IC and other transplanted mouse tumor systems): very substantial activity; also recorded: Antitumor activity was observed; also recorded: intracerebral (IC) as well as IP antitumor activity
- TR (therapeutic ratio) ([2]; last three systems (P388, B16, Lewis lung)): 3-4
- OD (optimum dose) ([3]; IP P388): 1 to 2 mg/kg
- antitumor activity ([3]; IP P388): very active
- ILS (increase in life span) ([3]; Table II, IP P388, ip QD1-9, 0.78 mg/kg/injection): 111% and 99% and 112%
- ILS (increase in life span) ([3]; Table II, IP P388, ip QD1-9, 1.56 mg/kg/injection): 138% and 135% and 112%
- T - C (average weight change of test group minus control) ([3]; Table II, IP P388, ip QD1-9, 6.25 mg/kg/injection, day 5): -6.1 grams
- OD (optimum dose) ([3]; Table IV, (IP) P388, QD1-9): 1.6 mg/kg/injection and 0.8 mg/kg/injection
- % ILS ([3]; Table IV, (IP) P388, QD1-9, at OD): 138% and 135% and 112%
- survivors of 6 test mice on experiment termination day ([3]; Table IV, (IP) P388, QD1-9, at OD, day 30): 1
- ILS (%) P388 ([3]; Table XI, outstanding activity): 138%
- survivors (number in parentheses) P388 ([3]; Table XI, per 6 test animals, day 30): 1
- solubility [4]: appeared to be adequate
- solubility ([4]; water, approximate, read-out: aqueous solubility): ~500 µg/mL (≈ 1370 µM)
- OD (optimum dose) (B16 melanocarcinoma; B16): 3.12 mg/kg
- antitumor activity (B16 melanocarcinoma; B16 melanoma): very active
- B16 melanoma activity (ILS) (B16 melanocarcinoma; OD of 3.12 mg/kg): ≤ 70%
- ILS (increase in life span) (B16 melanocarcinoma; B16, ip QD1-9, 1.56 mg/kg/injection): 38% and 44% and 58%
- ILS (increase in life span) (B16 melanocarcinoma; B16, ip QD1-9, 3.12 mg/kg/injection): 58% and 43% and 70%
- OD (optimum dose) (B16 melanocarcinoma; Table IV, (IP) B16, QD1-9): 3 mg/kg/injection
- % ILS (B16 melanocarcinoma; Table IV, (IP) B16, QD1-9, at OD): 94% and 70% and 62%
- ILS (%) B16 (B16 melanocarcinoma; Table XI, outstanding activity): 70%
- activity (%ILS) (lymphoid leukemia L1210 [5]; IP L1210, Q4D schedule): 54%
- optimum dose (lymphoid leukemia L1210 [5]; IP L1210, Q4D schedule): 6.25 mg/kg
- optimum dose (OD) (lymphoid leukemia L1210 [5]; IP L1210, QD1-9): 2 to 3 mg/kg
- therapeutic ratio (TR, highest active dose divided by lowest active dose) (lymphoid leukemia L1210 [5]; IP L1210, QD1-9): approximately 4
- increase in life span (ILS) (lymphoid leukemia L1210 [5]; L1210, Q4D and QD1-9 schedules): > 25%
- antitumor activity (lymphoid leukemia L1210 [5]; L1210 system, Q4D and QD1-9 schedules): very active
- ILS (increase in life span) (lymphoid leukemia L1210 [5]; [14]): 32%
- T - C (average weight change of test group minus control) (lymphoid leukemia L1210 [5]; [14]): -1.4 grams
- ILS (increase in life span) (lymphoid leukemia L1210 [5]; [15]): 60%
- T - C (average weight change of test group minus control) (lymphoid leukemia L1210 [5]; [15]): -2.3 grams
- ILS (increase in life span) (lymphoid leukemia L1210 [5]; IP L1210, ip QD1-9, 2.00 mg/kg/injection): 101% and 125%
- ILS (increase in life span) (lymphoid leukemia L1210 [5]; [16]): 27%
- T - C (average weight change of test group minus control) (lymphoid leukemia L1210 [5]; [16]): -4.1 grams
- T - C (average weight change of test group minus control) (lymphoid leukemia L1210 [5]; IP L1210, ip QD1-9, 12.50 mg/kg/injection): -5.0 grams
- OD (optimum dose) (lymphoid leukemia L1210 [5]; Table IV, (IP) L1210, QD1-9): 3 mg/kg/injection and 2 mg/kg/injection and 4 mg/kg/injection
- % ILS (lymphoid leukemia L1210 [5]; Table IV, (IP) L1210, QD1-9, at OD): 169% and 113% and 101% and 100%
- ILS (%) IP L1210 (lymphoid leukemia L1210 [5]; Table XI, outstanding activity): 169%
- ILS (lymphoid leukemia L1210 [5]; standard IP L1210 test, QD1-9): > 100%
- antitumor activity [6]: does not give multiple cures
- antitumor activity (Lewis lung carcinoma; Lewis lung): Marginal activity
- ILS (increase in life span) (Lewis lung carcinoma; Table II, sc Lewis lung, ip QD5-15, 2.00 mg/kg/injection): 38% and 34%
- OD (optimum dose) (lymphoid leukemia L1210 [7]; IC L1210): 3.12 mg/kg
- antitumor activity (lymphoid leukemia L1210 [7]; IC L1210): substantial
- ILS (lymphoid leukemia L1210 [7]; IC L1210, OD 3.12 mg/kg): 79% and 84%
- ILS (increase in life span) (lymphoid leukemia L1210 [7]; ic L1210, ip QD1-9, 1.56 mg/kg/injection): 51% and 46%
- ILS (increase in life span) (lymphoid leukemia L1210 [7]; ic L1210, ip QD1-9, 3.12 mg/kg/injection): 84% and 79%
- ILS (increase in life span) (lymphoid leukemia L1210 [7]; ic L1210, ip QD1-9, 6.25 mg/kg/injection): 10% and 3%
- OD (optimum dose) (lymphoid leukemia L1210 [7]; Table IV, (IC) L1210, QD1-9): 3 mg/kg/injection and 5 mg/kg/injection
- % ILS (lymphoid leukemia L1210 [7]; Table IV, (IC) L1210, QD1-9, at OD): 84% and 79% and 63% and 58%
- ILS (%) IC L1210 (lymphoid leukemia L1210 [7]; Table XI, outstanding activity): 84%
- log P [8]: 0.05
